Counter-ions that a name gives are not always drawn.
First: COCC/C(=N\c1cccc(CN(C)c2nc(=O)c3c(OC)c(OC)c(OC)cc3[nH]2)c1)N(C)C.Cl
Second: COCCCN(C)c1cccc(CN(C)c2nc(=O)c3c(OC)c(OC)c(OC)cc3[nH]2)c1 (as salt: HCl) [Example 189, 5,6,7-Trimethoxy-2-({3-[(3-methoxy-propyl)-methyl-amino]-benzyl}-methyl-amino)-1H-quinazolin-4-one]
The melting point of the first is lower: 145 °C for the first, 166.7 to 168.1 °C for the second.

First: COc1cc2[nH]c(N(C)Cc3ccc(CN4CCC(O)C4)cc3)nc(=O)c2c(C)c1OC (centres unmarked)
Second: COc1cc2[nH]c(N(C)Cc3ccc(CN)cc3)nc(=O)c2c(C)c1OC (as salt: HCl) [Example 42, 2-[(4-Aminomethyl-benzyl)-methyl-amino]-6,7-dimethoxy-5-methyl-1H-quinazolin-4-one]
The melting point of the first is lower: 166 to 169 °C for the first, 248.2 to 249.4 °C for the second.

`COc1cc2[nH]c(N(C)Cc3cccc(C4CCN(C)CC4)c3)nc(=O)c2c(OC)c1OC.Cl` and `COc1cc2[nH]c(N(C)Cc3cccc(CC4CCN(C)CC4)c3)nc(=O)c2c(OC)c1OC` (as salt: HCl) [Example 127, 5,6,7-Trimethoxy-2-{methyl-[3-(1-methyl-piperidin-4-ylmethyl)-benzyl]-amino}-1H-quinazolin-4-one] cannot be ordered by melting point: 181.5 to 189.4 °C for the first, 175 to 195 °C for the second.

`COc1cc2[nH]c(N(C)Cc3cccc(N4CCCC4)c3)nc(=O)c2cc1OC.Cl` and `COc1cc2nc(N(C)Cc3cccc(N4CCCC4)c3)[nH]c(=O)c2cc1OC` (as salt: salt) [Example A-1, 6,7-Dimethoxy-2-[methyl-(3-pyrrolidin-1-yl-benzyl)-amino]-1H-quinazolin-4-one] fall in the same range of melting point: 220 to 223 °C for the first, 220 to 223 °C for the second.

First: COc1ccc(CN(C)c2nc(=O)c3c(OC)c(OC)c(OC)cc3[nH]2)cc1OCC(CO)CO (as salt: HCl) [Example 3, 2-{[3-(3-Hydroxy-2-hydroxymethyl-propoxy)-4-methoxy-benzyl]-methyl-amino}-5,6,7-trimethoxy-1H-quinazolin-4-one]
Second: COc1ccc(CN(C)c2nc(=O)c3c(C)c(OC)c(OC)cc3[nH]2)cc1OCC(CO)CO [Example 6, 2-{[3-(3-Hydroxy-2-hydroxymethyl-propoxy)-4-methoxy-benzyl]-methyl-amino}-6,7-dimethoxy-5-methyl-1H-quinazolin-4-one]
The melting point of the first is lower: 139.7 to 146.6 °C for the first, 210.8 to 215.4 °C for the second.

Compared with `COc1cc2[nH]c(N(C)Cc3cccc(OCC(O)CO)c3)nc(=O)c2c(C)c1OC` (centres unmarked) (as salt: HCl) [Example 7, 2-{[3-(2,3-Dihydroxy-propoxy)-benzyl]-methyl-amino}-6,7-dimethoxy-5-methyl-1H-quinazolin-4-one], `COc1cc2[nH]c(N(C)Cc3ccc(OCC(CO)CO)cc3)nc(=O)c2c(C)c1OC` (as salt: HCl) [Example 15, 2-{[4-(3-Hydroxy-2-hydroxymethyl-propoxy)-benzyl]-methyl-amino}-6,7-dimethoxy-5-methyl-1H-quinazolin-4-one] is lower in melting point: 220 to 224 °C for the first, 197.5 to 199 °C for the second.

First: COc1cc2[nH]c(N(C)Cc3cccc(N4CCC(O)C4=O)c3)nc(=O)c2c(OC)c1OC (centres unmarked) (as salt: HCl) [Example 22, 2-{[3-(3-Hydroxy-2-oxo-pyrrolidin-1-yl)-benzyl]-methyl-amino}-5,6,7-trimethoxy-1H-quinazolin-4-one]
Second: COc1cc2[nH]c(N(C)Cc3cccc(N4C[C@@H](OC)CC4=O)c3)nc(=O)c2c(OC)c1OC [Example 8, 5,6,7-Trimethoxy-2-{[3-((S)-4-methoxy-2-oxo-pyrrolidin-1-yl)-benzyl]-methyl-amino}-1H-quinazolin-4-one]
The melting point of the first is higher: 172.9 to 175.9 °C for the first, 142.5 to 147.4 °C for the second.

`COCCNCc1ccc(CN(C)c2nc(=O)c3c(C)c(OC)c(OC)cc3[nH]2)cc1` (as salt: HCl) [Example 36, 6,7-Dimethoxy-2-({4-[(2-methoxy-ethylamino)-methyl]-benzyl}-methyl-amino)-5-methyl-1H-quinazolin-4-one] and `CNCc1ccc(CN(C)c2nc(=O)c3c(C)c(OC)c(OC)cc3[nH]2)cc1` (as salt: HCl) [Example 55, 6,7-Dimethoxy-5-methyl-2-[methyl-(4-methylaminomethyl-benzyl)-amino]-1H-quinazolin-4-one] cannot be ordered by melting point: 265 to 268 °C for the first, 264 to 268 °C for the second.

Compared with `COc1cc2[nH]c(N(C)Cc3ccc(OCCCN(C)C)cc3)nc(=O)c2c(C)c1OC` (as salt: HCl) [Example 44, 2-{[4-(3-Dimethylamino-propoxy)-benzyl]-methyl-amino}-6,7-dimethoxy-5-methyl-1H-quinazolin-4-one], `COc1cc2[nH]c(N(C)Cc3ccc(CN(C)S(C)(=O)=O)cc3)nc(=O)c2c(C)c1OC` [Example 10, N-(4-{[(6,7-Dimethoxy-5-methyl-4-oxo-1,4-dihydro-quinazolin-2-yl)-methyl-amino]-methyl}-benzyl)-N-methyl-methanesulfonamide] is higher in melting point: 191 to 192.2 °C for the first, 238 to 240 °C for the second.

First: COc1cc2[nH]c(N(C)Cc3cccc(/N=C/N(C)C)c3)nc(=O)c2cc1OC (as salt: HCl) [Example 86, N′-(3-{[(6,7-Dimethoxy-4-oxo-1,4-dihydro-quinazolin-2-yl)-methyl-amino]-methyl}-phenyl)-N,N-dimethyl-formamidine]
Second: COc1cc2[nH]c(N(C)Cc3cccc(C#N)c3)nc(=O)c2c(C)c1OC (as salt: TFA) [Example 96, 3-{[(6,7-Dimethoxy-5-methyl-4-oxo-1,4-dihydro-quinazolin-2-yl)-methyl-amino]-methyl}-benzonitrile]
The melting point of the first is lower: 242 to 245 °C for the first, 279.9 to 281.5 °C for the second.

First: COc1cc2[nH]c(N(C)Cc3cccc(CN(C)CCO)c3)nc(=O)c2c(OC)c1OC (as salt: HCl) [Example 116, 2-[(3-{[(2-Hydroxy-ethyl)-methyl-amino]-methyl}-benzyl)-methyl-amino]-5,6,7-trimethoxy-1H-quinazolin-4-one]
Second: COCCN(C)Cc1cccc(CN(C)c2nc(=O)c3c(OC)c(OC)c(OC)cc3[nH]2)c1 (as salt: hydrochloride) [Example 117, 5,6,7-Trimethoxy-2-[(3-{[(2-methoxy-ethyl)-methyl-amino]-methyl}-benzyl)-methyl-amino]-1H-quinazolin-4-one]
The melting point of the first is higher: 169 to 171.9 °C for the first, 162.9 to 164.5 °C for the second.

First: COc1cc2[nH]c(N(C)Cc3cccc(NC(C)=O)c3)nc(=O)c2c(OC)c1OC (as salt: HCl) [Example 174, N-(3-{[Methyl-(5,6,7-trimethoxy-4-oxo-1,4-dihydro-quinazolin-2-yl)-amino]-methyl}-phenyl)-acetamide]
Second: COCCCNc1cccc(CN(C)c2nc(=O)c3c(OC)c(OC)c(OC)cc3[nH]2)c1 (as salt: HCl) [Example 188, 5,6,7-Trimethoxzy-2-{[3-(3-methoxy-propylamino)-benzyl]-methyl-amino}-1H-quinazolin-4-one]
The melting point of the first is lower: 166.5 to 172.9 °C for the first, 207 to 209.1 °C for the second.

First: COc1cc2[nH]c(N(C)Cc3cccc(N(C)CCCO)c3)nc(=O)c2c(OC)c1OC (as salt: HCl) [Example 187]
Second: COc1cc2[nH]c(N(C)Cc3cccc(C4=NCCN4CCO)c3)nc(=O)c2c(OC)c1OC (as salt: TFA) [Example 245, 2-({3-[1-(2-Hydroxy-ethy)-4,5-dihydro-1H-imidazol-2-yl]-benzyl}-methyl-amino)-5,6,7-trimethoxy-1H-quinazolin-4-one]
The melting point of the first is higher: 156 to 157.2 °C for the first, 106.1 to 116.6 °C for the second.

First: CCc1c(OC)c(OC)cc2[nH]c(N(C)Cc3cccc(N=C4N(C)CCN4C)c3)nc(=O)c12 (as salt: salt) [Example 207, 2-{[3-(1,3-dimethyl-imidazolidin-2-ylideneamino)-benzyl]-methyl-amino}-5-ethyl-6,7-dimethoxy-1H-quinaolin-4-one]
Second: COc1cc2[nH]c(N(C)Cc3cccc(Oc4ncccn4)c3)nc(=O)c2c(C)c1OC (as salt: salt) [Example F-3, 6,7-Dimethoxy-5-methyl-2-{methyl-[3-(pyrimidin-2-yloxy)-benzyl]-amino}-1H-quinazolin-4-one]
The melting point of the first is lower: 212.5 to 219.9 °C for the first, 224 to 227.8 °C for the second.

Compared with `COc1cc2nc(N(C)Cc3cccc(/N=C(\C)N(C)C)c3)[nH]c(=O)c2c(C)c1OC` (as salt: salt) [Example G-1, N′-(3-{[(6,7-Dimethoxy-5-methyl-4-oxo-1,4-dihydro-quinazolin-2-yl)-methyl-amino]-methyl}-phenyl)-N,N-dimethyl-acetamidine], `COc1cc2[nH]c(N(C)Cc3cccc(C(C)N(C)C(=O)N(C)C)c3)nc(=O)c2c(C)c1OC` (centres unmarked) [Example 4, 1-[1-(3-{[(6,7-Dimethoxy-5-methyl-4-oxo-1,4-dihydro-quinazolin-2-yl)-methyl-amino]-methyl}-phenyl)-ethyl]-1,3,3-trimethyl-urea] is lower in melting point: 170.6 to 172.5 °C for the first, 125.9 to 128 °C for the second.

First: COc1cc2[nH]c(N(C)Cc3ccc(CN(C)CCC(F)(F)F)cc3)nc(=O)c2c(OC)c1OC [Example 1, 5,6,7-Trimethoxy-2-[methyl-(4-{[methyl-(3,3,3-trifluoro-propyl)-amino]-methyl}-benzyl)-amino]-1H-quinazolin-4-one]
Second: COCCOC(=O)N(C)Cc1ccc(CN(C)c2nc(=O)c3c(C)c(OC)c(OC)cc3[nH]2)cc1 [Example 9, (4-{[(6,7-Dimethoxy-5-methyl-4-oxo-1,4-dihydro-quinazolin-2-yl)-methyl-amino]-methyl}-benzyl)-methyl-carbamic acid 2-methoxy-ethyl ester]
The melting point of the first is lower: 97.8 to 101.9 °C for the first, 159.4 to 160.4 °C for the second.

First: COCC(O)COc1ccc(CN(C)c2nc(=O)c3c(OC)c(OC)c(OC)cc3[nH]2)cc1 (centres unmarked) [Example 2, 2-{[4-(2-Hydroxy-3-methoxy-propoxy)-benzyl]-methyl-amino}-5,6,7-trimethoxy-1H-quinazolin-4-one]
Second: COC(=O)N(C)C(C)c1cccc(CN(C)c2nc(=O)c3c(C)c(OC)c(OC)cc3[nH]2)c1 (centres unmarked) [Example 5]
The melting point of the first is lower: 108.1 to 111.5 °C for the first, 117.9 to 120.1 °C for the second.

For `COc1cc2[nH]c(N(C)Cc3ccccc3N)nc(=O)c2c(OC)c1OC` (as salt: HCl) [Example 104, 2-[(2-Amino-benzyl)-methyl-amino]-5,6,7-trimethoxy-1H-quinazolin-4-one], the melting point was > 300 °C (dec.).
